Tested on: r(CUG)12-MBNL1 complex
Experiment: Inhibition of the r(CUG)12-MBNL1 complex measured by TR-FRET
Type: biochemical
Conditions: 80 nM RNA, 60 nM MBNL1-His6

`CN(C)CCNC(=O)Nc1ccc2nc(-c3ccc(-c4nc5ccc(NC(=O)NCCN(C)C)cc5[nH]4)cc3)[nH]c2c1` [Compound 64] gave an IC50 (Table L) of 27 µM.
For `CN(C)CCNC(=O)c1ccc(-c2nc3ccc(-c4ccc5nc(-c6ccc(C(=O)N(C)CCOCCOCc7cn(CCCNCC(=O)N8CCC[C@H]8C(=O)N8CCC[C@H]8C(=O)N8CCC[C@H]8C(=O)N8CCC[C@H]8C(=O)N(CCCn8cc(COCCOCCN(C)C(=O)c9ccc(-c%10nc%11ccc(-c%12ccc%13nc(-c%14ccc(C(=O)NCCN(C)C)cc%14)[nH]c%13c%12)cc%11[nH]%10)cc9)nn8)CC(N)=O)nn7)cc6)[nH]c5c4)cc3[nH]2)cc1` [Compound 432], the IC50 (Table M) was 11.6 µM.
`CN(C)Cc1cn(CCOc2ccc3nc(-c4ccc(-c5nc6ccc(OCCn7cc(CN(C)C)nn7)cc6[nH]5)cc4)[nH]c3c2)nn1` [Compound 227] was tested, and the IC50 (Table M) was 120 µM.
Work on `CN(C)CCCOc1ccc2nc(-c3ccc(-c4nc5ccc(C(=O)NCCN6CCCC6)cc5[nH]4)cc3)[nH]c2c1` [Compound 232, 2-(4-(6-(3-(dimethylamino)propoxy)-1H-benzo[d]imidazol-2-yl)phenyl)-N-(2-(pyrrolidin-1-yl)ethyl)-1H-benzo[d]imidazole-6-carboxamide] yielded an IC50 (Table M) of 25 µM.
`CN1CC[C@@H](Oc2ccc3nc(-c4ccc(-c5nc6ccc(O)cc6[nH]5)cc4)[nH]c3c2)C1` [Compound 182] was tested, and the IC50 (Table M) was 93.6 µM.
`Nc1ccc2nc(-c3ccc(-c4nc5ccc(Nc6ccccn6)cc5[nH]4)cc3)[nH]c2c1` [Compound 21, 2-(4-(5-amino-1H-benzo[d]imidazol-2-yl)phenyl)-N-(pyridin-2-yl)-1H-benzo[d]imidazol-5-amine] was tested, and the IC50 (Table L) was 150 µM.
Molecule `Cc1cc(-c2nc3cc(-c4ccc5[nH]c(-c6ccc(OCCCN(C)C)c(C)c6)nc5c4)ccc3[nH]2)ccc1O` [Compound 365] has an IC50 (Table M) of 9.84 µM.
For `O=[N+]([O-])c1ccc(-c2nc3cc(-c4ccc5[nH]c(-c6ccc([N+](=O)[O-])cc6)nc5c4)ccc3[nH]2)cc1` [Compound 94], the IC50 (Table L) was > 200 µM.
`CN(C)CCN(C)CCOc1ccc2nc(-c3ccc(-c4nc5ccc(OCCN(C)CCN(C)C)cc5[nH]4)cc3)[nH]c2c1` [Compound 211] was tested, and the IC50 (Table M) was 112 µM.
Molecule `CN(CCNC(=O)c1ccc2nc(-c3ccc(-c4nc5ccc(C(=O)NCCN(C)C[C@H](O)[C@@H](O)[C@H](O)[C@H](O)CO)cc5[nH]4)cc3)[nH]c2c1)CC(O)C(O)C(O)C(O)CO` (stereo in doubt) [Compound 175, 2,2′-(1,4-phenylene)bis(N-(2-(methyl((2S,3R,4R,5R)-2,3,4,5,6-pentahydroxyhexyl)amino)ethyl)-1H-benzo[d]imidazole-6-carboxamide)] has an IC50 (Table M) of 49.1 µM.
Molecule `CN(C)CCCOc1ccc2nc(-c3ccc(-c4nc5ccc(OCCCN(C)C)cc5[nH]4)nn3)[nH]c2c1` [Compound 292] has an IC50 (Table M) of 14 µM.
`NCCCOc1ccc(-c2nc3cc(-c4ccc5[nH]c(-c6ccc(O)cc6)nc5c4)ccc3[nH]2)cc1` [Compound 380] gave an IC50 (Table M) of 16.7 µM.
`CN(C)CCNC(=O)c1ccc(-c2nc3cc(-c4ccc5[nH]c(-c6ccc(C(=O)NCCCCCCCCCCNC(=O)c7ccc(-c8nc9cc(-c%10ccc%11[nH]c(-c%12ccc(C(=O)NCCN(C)C)cc%12)nc%11c%10)ccc9[nH]8)cc7)cc6)nc5c4)ccc3[nH]2)cc1` [Compound 424] showed an IC50 (Table M) of 5.82 µM.
`Brc1ccc(-c2nc3cc(-c4ccc5[nH]c(-c6ccc(Br)cc6)nc5c4)ccc3[nH]2)cc1` [Compound 104] was tested, and the IC50 (Table L) was > 200 µM.
Molecule `CN1CC[C@@H](Oc2ccc(-c3nc4cc(-c5ccc6[nH]c(-c7ccc(O)cc7)nc6c5)ccc4[nH]3)cc2)C1` [Compound 374] has an IC50 (Table M) of 12.8 µM.
`Cc1cc(-c2nc3ccc(OCCCN(C)C)cc3[nH]2)ccc1-c1nc2ccc(OCCCN(C)C)cc2[nH]1` [Compound 272] was tested, and the IC50 (Table M) was 95.2 µM.
For `C[C@H](C(=O)N(C)[C@H](C)C(=O)N(C)[C@H](C)C(=O)N(C)[C@H](C)C(=O)N(CCCn1cc(COCCOCCOCCOCCNC(=O)c2ccc(-c3nc4ccc(-c5ccc6nc(-c7ccc(C(=O)NCCN(C)C)cc7)[nH]c6c5)cc4[nH]3)cc2)nn1)CC(N)=O)N(C)C(=O)CNCCCn1cc(COCCOCCOCCOCCNC(=O)c2ccc(-c3nc4ccc(-c5ccc6nc(-c7ccc(C(=O)NCCN(C)C)cc7)[nH]c6c5)cc4[nH]3)cc2)nn1` [Compound 431], the IC50 (Table M) was > 200 µM.
In the case of `C[C@@H](C(=O)N(C)[C@@H](C)C(=O)N(C)[C@@H](C)C(=O)N(CCCCN(C)C(=O)c1ccc(-c2nc3cc(-c4ccc5[nH]c(-c6ccc(C(=O)NCCN(C)C)cc6)nc5c4)ccc3[nH]2)cc1)CC(N)=O)N(C)C(=O)c1ccc(-c2nc3cc(-c4ccc5[nH]c(-c6ccc(C(=O)NCCN(C)C)cc6)nc5c4)ccc3[nH]2)cc1` [Compound 415], the IC50 (Table M) is reported as 5.15 µM.
In the case of `CN(C)CCNC(=O)c1ccc(-c2nc3ccc(-c4ccc5nc(-c6ccc(C(=O)NC[C@H]7CCCN7C(=O)c7ccc(-c8nc9ccc(-c%10ccc%11nc(-c%12ccc(C(=O)NCCN(C)C)cc%12)[nH]c%11c%10)cc9[nH]8)cc7)cc6)[nH]c5c4)cc3[nH]2)cc1` [Compound 453], the IC50 (Table M) is reported as 6.2 µM.
With `Cn1c(-c2ccc(-c3nc4cc(Br)ccc4n3C)cc2)nc2cc(Br)ccc21` [Compound 89, 1,4-bis(5-bromo-1-methyl-1H-benzo[d]imidazol-2-yl)benzene] the IC50 (Table L) was > 200 µM.
Work on `CCCCOc1cc(-c2nc3cc(OCCCN(C)C)ccc3[nH]2)c(OCCCC)cc1-c1nc2cc(OCCCN(C)C)ccc2[nH]1` [Compound 333] yielded an IC50 (Table M) of 46.9 µM.
`CN(C)CCCN(CCCNC(=O)c1ccc(-c2nc3ccc(-c4ccc5nc(-c6ccc(C(=O)NCCN(C)C)cc6)[nH]c5c4)cc3[nH]2)cc1)C(=O)c1ccc(-c2nc3ccc(-c4ccc5nc(-c6ccc(C(=O)NCCN(C)C)cc6)[nH]c5c4)cc3[nH]2)cc1` [Compound 450] gave an IC50 (Table M) of 29.2 µM.
`CN(C)CCCCOc1ccc(-c2nc3cc(-c4ccc5[nH]c(-c6ccc(OCCCCN(C)C)cc6)nc5c4)ccc3[nH]2)cc1` [Compound 362] gave an IC50 (Table M) of 29 µM.
In the case of `CN(C)CCNC(=O)c1ccc(-c2nc3cc(-c4ccc5[nH]c(-c6ccc(OCCN(C)C)cc6)nc5c4)ccc3[nH]2)cc1` [Compound 382], the IC50 (Table M) is reported as 17.4 µM.
Work on `CN(C)CCCCCCOc1ccc2nc(-c3ccc(-c4nc5ccc(O)cc5[nH]4)cc3)[nH]c2c1` [Compound 209] yielded an IC50 (Table M) of 19.4 µM.
For `COC(=O)c1ccc2nc(-c3ccc(-c4nc5ccc(C(=O)OC)cc5[nH]4)cc3)[nH]c2c1` [Compound 10, dimethyl 2,2′-(1,4-phenylene)bis(1H-benzo[d]imidazole-6-carboxylate)], the IC50 (Table L) was > 200 µM.
`N=C(N)Nc1ccc(-c2nc3cc(-c4ccc5[nH]c(-c6ccc(NC(=N)N)cc6)nc5c4)ccc3[nH]2)cc1` [Compound 96] gave an IC50 (Table L) of 4.6 µM.
With `CC(=O)N(CCCCN(C)C(=O)c1ccc(-c2nc3cc(-c4ccc5[nH]c(-c6ccc(C(=O)NCCN(C)C)cc6)nc5c4)ccc3[nH]2)cc1)CC(=O)N(C)[C@@H](C)C(=O)N(C)[C@@H](C)C(=O)N(C)[C@@H](C)C(=O)N(CCCCN(C)C(=O)c1ccc(-c2nc3cc(-c4ccc5[nH]c(-c6ccc(C(=O)NCCN(C)C)cc6)nc5c4)ccc3[nH]2)cc1)CC(N)=O` [Compound 418] the IC50 (Table M) was 5.32 µM.
Molecule `CN(C)CCNC(=O)c1ccc(-c2nc3ccc(-c4ccc5nc(-c6ccc(C(=O)NCC7CCCCN7C(=O)c7ccc(-c8nc9ccc(-c%10ccc%11nc(-c%12ccc(C(=O)NCCN(C)C)cc%12)[nH]c%11c%10)cc9[nH]8)cc7)cc6)[nH]c5c4)cc3[nH]2)cc1` (centres unmarked) [Compound 440] has an IC50 (Table M) of 1.2 µM.
In the case of `N=C(N)Nc1cccc(-c2nc3cc(-c4ccc5nc(-c6cccc(N)c6)[nH]c5c4)ccc3[nH]2)c1` [Compound 166], the IC50 (Table L) is reported as 46 µM.
`CC(=O)NCCN1CCN(CCNC(=O)c2ccc3nc(-c4ccc(-c5nc6ccc(C(=O)NCCN7CCCCC7)cc6[nH]5)cc4)[nH]c3c2)CC1` [Compound 206] gave an IC50 (Table M) of 64.4 µM.
In the case of `COCCn1c(-c2ccc(-c3nc4ccc(OCCCN(C)C)cc4[nH]3)cc2)nc2ccc(OCCCN(C)C)cc21` [Compound 330], the IC50 (Table M) is reported as 132 µM.
In the case of `N#Cc1ccc(Oc2ccc3nc(-c4ccc(-c5nc6ccc(Oc7ccc(C#N)cc7)cc6[nH]5)cc4)[nH]c3c2)cc1` [Compound 229, 4,4′-((2,2′-(1,4-phenylene)bis(1H-benzo[d]imidazole-6,2-diyl))bis(oxy))dibenzonitrile], the IC50 (Table M) is reported as > 200 µM.
`CN(C)CCOc1ccc(-c2nc3cc(-c4ccc5[nH]c(-c6cccc(OCCN(C)C)c6)nc5c4)ccc3[nH]2)cc1` [Compound 355] was tested, and the IC50 (Table M) was 11.2 µM.
In the case of `N=C(NO)c1ccc(-c2nc3cc(-c4ccc5[nH]c(-c6ccc(C(=N)NO)cc6)nc5c4)ccc3[nH]2)cc1` [Compound 98], the IC50 (Table L) is reported as 144 µM.
With `OCCOc1cc(-c2nc3ccc(O)cc3[nH]2)ccc1-c1nc2ccc(O)cc2[nH]1` [Compound 261] the IC50 (Table M) was 74.1 µM.
For `CN(C)CCN(C)C(=O)c1ccc2nc(-c3ccc(-c4nc5ccc(C(=O)N(C)CCN(C)C)cc5[nH]4)cc3)[nH]c2c1` [Compound 68], the IC50 (Table L) was > 200 µM.
Work on `CN(C)CCCOc1ccc2nc(-c3ccc(-c4nc5ccc(C(=O)NCCN(C)C)cc5[nH]4)cc3)[nH]c2c1` [Compound 238] yielded an IC50 (Table M) of 10 µM.
`CN(C)CCCOc1ccc2nc(-c3ccc(-c4nc5ccc(SCCCN(C)C)cc5[nH]4)cc3)[nH]c2c1` [Compound 228, 3-((2-(4-(6-(3-(dimethylamino)propoxy)-1H-benzo[d]imidazol-2-yl)phenyl)-1H-benzo[d]imidazol-6-yl)thio)-N,N-dimethylpropan-1-amine] showed an IC50 (Table M) of 47.1 µM.
Work on `CN(C)CC(C)(C)COc1ccc2nc(-c3ccc(-c4nc5ccc(OCC(C)(C)CN(C)C)cc5[nH]4)cc3)[nH]c2c1` [Compound 180] yielded an IC50 (Table M) of 78.9 µM.
In the case of `CN(C)CCNC(=O)c1ccc2nc(-c3ccc(-c4nc5ccc(C(=O)O)cc5[nH]4)cc3)[nH]c2c1` [Compound 319], the IC50 (Table M) is reported as > 200 µM.
`C[C@@H](NC(=O)CNCCNC(=O)c1ccc(-c2nc3cc(-c4ccc5[nH]c(-c6ccc(C(=O)NCCN(C)C)cc6)nc5c4)ccc3[nH]2)cc1)C(=O)N[C@H](C)C(=O)N[C@H](C)C(=O)N[C@H](C)C(=O)N(CCNC(=O)c1ccc(-c2nc3cc(-c4ccc5[nH]c(-c6ccc(C(=O)NCCN(C)C)cc6)nc5c4)ccc3[nH]2)cc1)CC(N)=O` (single isomer, unassigned) [Compound 444] showed an IC50 (Table M) of 13 µM.
With `CN(C)CCNC(=O)c1ccc(-c2nc3cc(-c4ccc5[nH]c(-c6ccc(C(=O)NCCNC(=O)c7ccc(-c8nc9cc(-c%10ccc%11[nH]c(-c%12ccc(C(=O)NCCN(C)C)cc%12)nc%11c%10)ccc9[nH]8)cc7)cc6)nc5c4)ccc3[nH]2)cc1` [Compound 412] the IC50 (Table M) was 3.28 µM.
In the case of `NC(=O)Nc1ccc(-c2nc3cc(-c4ccc5[nH]c(-c6ccc(NC(N)=O)cc6)nc5c4)ccc3[nH]2)cc1` [Compound 97], the IC50 (Table L) is reported as 71 µM.
